Values of other authors as cited in patent publication EP1195160B1, “Sustained release trimetazidine pharmaceutical compositions and a method of their preparation” (USV Ltd., priority 2000, dated 2002).
Read-outs that look alike come from different tables or passages of the source.

What was measured:
[1] = 80mg dose, prolonged release coated reservoir system of EP 0 673 649, 12 volunteers
[2] = oral, immediate release preparation
[3] = value from the literature
[4] = 20mg, single dose administration

COc1ccc(CN2CCNCC2)c(OC)c1OC.Cl.Cl [Trimetazidine dihydrochloride, 1-(2,3,4-trimethoxybenzyl)-piperazine dihydrochloride]
steady state plasma concentration (Css) [1]: around 110 ng/ml
T max [2]: around 1.8 ± 0.7 hours
plasma half life [2]: around 6.0 ± 1.4 hours
Elimination half life t 1/2 [3]: t 1/2 = 6.0 hours.
Plasma concentration Css [3]: Css = 84ng/ml
T max [3]: T max = 1.8 ± 0.7 hours.
Volume of distribution Vd [3]: Vd = 294 litres.
maximum plasma concentration Cmax [4]: 53.6 ± 9.0 ng/mL
